{"source": "patent US9745289B2", "about": "“Aldosterone synthase inhibitors” (Boehringer Ingelheim International GmbH, priority 2014, dated 2017)", "note": "Where “and” joins values, the source holds several entries; their conditions need not be identical. Equal values may be shown once.", "data": [{"target": "cortisol synthase (CYP11B1) (Macaca fascicularis, UniProt A0A2K5ULY1)", "assay": "Inhibition of Cortisol Synthesis", "type": "biochemical, cynomolgus monkey", "conditions": "cynomolgus adrenal gland mitochondria; 150 units of CYP11B1, 11-deoxycortisol as substrate, cortisol measured as product", "procedure": "The aldosterone synthase and cortisol synthase inhibition assays employ cynomolgus adrenal gland mitochondria as the source of aldosterone synthase (CYP11B2) and cortisol synthase (CYP11B1). […] Activity of CYP11B2 and CYP11B1 in these preparations is defined as the amount of enzyme that generates 1 pmol of product in one hour under the conditions described.\nAssays are performed in 96-well format in a final volume of 60 μL/well, containing 100 mM potassium phosphate, pH 7.4, 1% (v/v) DMSO, and additionally, 2 μM of corticosterone and 50 units of CYP11B2 activity. Reactions are started by the addition of NADPH to 1 mM and allowed to proceed for 90 minutes at 37° C. Reactions are terminated by the addition of 60 μL of MeCN containing an internal standard for mass spectrometry. One hundred microliters are then transferred to a glass filter plate and centrifuged at 570×g for 5 minutes and the filtrate is collected. Reaction product aldosterone is quantified by mass spectrometry. To determine the assay blank value (0% activity), NADPH is omitted from some reactions.\nDose dependent inhibition is quantified by the inclusion of compound at various concentrations. Maximum activity (100%) is defined by reactions containing NADPH, but without compound.\nAssays are performed as for aldosterone synthase except for the use of 150 units of CYP11B1, 11-deoxycortisol as substrate and cortisol measured as product.", "values": [{"smiles": "NC(=O)c1cccc2c1OCC(c1cncc(C(F)(F)F)c1)O2", "note": "(single isomer, unassigned) [Cpd 9A, 2-(5-Trifluoromethyl-pyridin-3-yl)-2,3-dihydro-benzo[1,4]dioxine-5-carboxylic acid amide]", "IC50": "5.2 µM"}, {"smiles": "NC(=O)c1cccc2c1OCC(c1cncc(C3(O)CCOCC3)c1)O2", "note": "(single isomer, unassigned) [Cpd 1A, 2-[5-(4-Hydroxy-tetrahydro-pyran-4-yl)-pyridin-3-yl]-2,3-dihydro-benzo[1,4]dioxine-5-carboxylic acid amide]", "IC50": "> 100 µM"}, {"smiles": "NC(=O)c1cccc2c1OCC(c1cncc(C3(O)CCCCC3)c1)O2", "note": "(single isomer, unassigned) [Cpd 11A, 2-[5-(1-Hydroxy-cyclohexyl)-pyridin-3-yl]-2,3-dihydro-benzo[1,4]dioxine-5-carboxylic acid amide]", "IC50": "24 µM"}, {"smiles": "Cc1c(C#N)cncc1C1COc2c(cccc2C(N)=O)O1", "note": "(single isomer, unassigned) [Cpd 61A, 2-(5-cyano-4-methyl-pyridin-3-yl)-2,3-dihydro-benzo[1,4]dioxine-5-carboxylic acid amide]", "IC50": "25 µM"}, {"smiles": "CS(=N)(=O)Cc1cncc(C2COc3c(C#N)cccc3O2)c1", "note": "(single isomer, unassigned) [Cpd 62AA, 2-(5-{[imino(methyl)oxo-λ^6-sulfanyl]methyl}pyridin-3-yl)-2,3-dihydro-1,4-benzodioxine-5-carbonitrile]", "IC50": "> 30 µM"}, {"smiles": "NC(=O)c1cccc2c1OCC(c1cncc(OC3CCOCC3)c1)O2", "note": "(single isomer, unassigned) [Cpd 47A, 2-[5-(Tetrahydro-pyran-4-yloxy)-pyridin-3-yl]-2,3-dihydro-benzo[1,4]dioxine-5-carboxylic acid amide]", "IC50": "8.5 µM"}, {"smiles": "CN(C)C(=O)COCc1cncc(C2COc3c(cccc3C(N)=O)O2)c1", "note": "(single isomer, unassigned) [Cpd 25B, 2-(5-Dimethylcarbamoylmethoxymethyl-pyridin-3-yl)-2,3-dihydro-benzo[1,4]dioxine-5-carboxylic acid amide]", "IC50": "15 µM"}, {"smiles": "NC(=O)c1cccc2c1OCC(c1cncc(C3CCOCC3)c1)O2", "note": "(single isomer, unassigned) [Cpd 10B, 2-[5-(Tetrahydro-pyran-4-yl)-pyridin-3-yl]-2,3-dihydro-benzo[1,4]dioxine-5-carboxylic acid amide]", "IC50": "0.23 µM"}, {"smiles": "N#CC1(c2cncc(C3COc4c(cccc4C(N)=O)O3)c2)CC1", "note": "(single isomer, unassigned) [Cpd 2B, 2-[5-(1-Cyano-cyclopropyl)-pyridin-3-yl]-2,3-dihydro-benzo[1,4]dioxine-5-carboxylic acid amide]", "IC50": "0.23 µM"}, {"smiles": "CN1C(=O)CCC1c1cncc(C2COc3c(cccc3C(N)=O)O2)c1", "note": "(single isomer, unassigned) [Cpd 6AA, 2-[5-(-1-Methyl-5-oxo-pyrrolidin-2-yl)-pyridin-3-yl]-2,3-dihydro-benzo[1,4]dioxine-5-carboxylic acid amide]", "IC50": "2.2 µM"}, {"smiles": "CC(C)(O)c1c(F)cncc1C1COc2c(cccc2C(N)=O)O1", "note": "(single isomer, unassigned) [Cpd 58B, 2-[5-Fluoro-4-(1-hydroxy-1-methyl-ethyl)-pyridin-3-yl]-2,3-dihydro-benzo[1,4]dioxine-5-carboxylic acid amide]", "IC50": "3 µM"}, {"smiles": "CC(=O)N1CCC(Oc2cncc(C3COc4c(cccc4C(N)=O)O3)c2)CC1", "note": "(single isomer, unassigned) [Cpd 12A, 2-[5-(1-Acetyl-piperidin-4-yloxy)-pyridin-3-yl]-2,3-dihydro-benzo[1,4]dioxine-5-carboxylic acid amide]", "IC50": "18 µM"}, {"smiles": "NC(=O)c1cccc2c1OCC(c1cncc(CC(=O)N3CCOCC3)c1)O2", "note": "(single isomer, unassigned) [Cpd 13B, 2-[5-(2-Morpholin-4-yl-2-oxo-ethyl)-pyridin-3-yl]-2,3-dihydro-benzo[1,4]dioxine-5-carboxylic acid amide]", "IC50": "66 µM"}, {"smiles": "CCS(=O)(=O)NCc1cncc(C2COc3c(C#N)cccc3O2)c1", "note": "(single isomer, unassigned) [Cpd 54B, Ethanesulfonic acid [5-(5-cyano-2,3-dihydro-benzo[1,4]dioxin-2-yl)-pyridin-3-ylmethyl]-amide]", "IC50": "14 µM"}, {"smiles": "CCS(=O)(=O)NC(c1cncc(C2COc3c(cccc3C(N)=O)O2)c1)C1CC1", "note": "(single isomer, unassigned) [Cpd 60AB]", "IC50": "> 30 µM"}, {"smiles": "CS(=O)(=O)COc1cncc(C2COc3c(C#N)cccc3O2)c1", "note": "(single isomer, unassigned) [Cpd 44B, 2-(5-Methanesulfonylmethoxy-pyridin-3-yl)-2,3-dihydro-benzo[1,4]dioxine-5-carbonitrile]", "IC50": "13 µM"}, {"smiles": "NC(=O)c1cccc2c1OCC(c1cncc(C(F)(F)F)c1)O2", "note": "(single isomer, unassigned) [Cpd 9B, 2-(5-Trifluoromethyl-pyridin-3-yl)-2,3-dihydro-benzo[1,4]dioxine-5-carboxylic acid amide]", "IC50": "2.2 µM"}, {"smiles": "CN(C)C(=O)COCc1cncc(C2COc3c(cccc3C(N)=O)O2)c1", "note": "(single isomer, unassigned) [Cpd 25A, 2-(5-Dimethylcarbamoylmethoxymethyl-pyridin-3-yl)-2,3-dihydro-benzo[1,4]dioxine-5-carboxylic acid amide]", "IC50": "> 100 µM"}, {"smiles": "CN1C(=O)CCC1c1cncc(C2COc3c(C#N)cccc3O2)c1", "note": "(single isomer, unassigned) [Cpd 35A, 2-[5-(1-Methyl-5-oxo-pyrrolidin-2-yl)-pyridin-3-yl]-2,3-dihydro-benzo[1,4] dioxine-5-carbonitrile]", "IC50": "0.53 µM"}, {"smiles": "NC(=O)c1cccc2c1OCC(c1cncc(C3(O)CCC3)c1)O2", "note": "(single isomer, unassigned) [Cpd 26B, 2-[5-(1-Hydroxy-cyclobutyl)-pyridin-3-yl]-2,3-dihydro-benzo[1,4]dioxine-5-carboxylic acid amide]", "IC50": "0.67 µM"}, {"smiles": "CS(=O)(=O)Cc1cncc(C2COc3c(C#N)cccc3O2)c1", "note": "(single isomer, unassigned) [Cpd 37A, 2-(5-Methanesulfonylmethyl-pyridin-3-yl)-2,3-dihydro-benzo[1,4]dioxine-5-carbonitrile]", "IC50": "25 µM"}, {"smiles": "C[C@@H](O)c1c(F)cncc1C1COc2c(cccc2C(N)=O)O1", "note": "(single isomer, unassigned) [Cpd 57A]", "IC50": "16 µM"}, {"smiles": "CC(C)(O)c1c(F)cncc1C1COc2c(cccc2C(N)=O)O1", "note": "(single isomer, unassigned) [Cpd 58A, 2-[5-Fluoro-4-(1-hydroxy-1-methyl-ethyl)-pyridin-3-yl]-2,3-dihydro-benzo[1,4]dioxine-5-carboxylic acid amide]", "IC50": "23 µM"}, {"smiles": "NC(=O)c1cccc2c1OCC(c1cncc(C(O)C(F)(F)F)c1)O2", "note": "(single isomer, unassigned) [Cpd 49BA, 2-[5-(2,2,2-Trifluoro-1-hydroxy-ethyl)-pyridin-3-yl]-2,3-dihydro-benzo[1,4]dioxine-5-carboxylic acid amide]", "IC50": "2.5 µM and 1.1 µM"}, {"smiles": "CN(C)C(=O)Cc1cncc(C2COc3c(cccc3C(N)=O)O2)c1", "note": "(single isomer, unassigned) [Cpd 29B, 2-[5-[2-(Dimethylamino)-2-oxo-ethyl]-3-pyridyl]-2,3-dihydro-1,4-benzodioxine-5-carboxamide]", "IC50": "> 30 µM"}, {"smiles": "CCS(=O)(=O)NCc1cncc(C2COc3c(C#N)cccc3O2)c1", "note": "(single isomer, unassigned) [Cpd 54A, Ethanesulfonic acid [5-(5-cyano-2,3-dihydro-benzo[1,4]dioxin-2-yl)-pyridin-3-ylmethyl]-amide]", "IC50": "23 µM"}, {"smiles": "NC(=O)c1cccc2c1OCC(c1cncc(-c3ccc(S(N)(=O)=O)cc3)c1)O2", "note": "(single isomer, unassigned) [Cpd 16A, 2-[5-(4-Sulfamoyl-phenyl)-pyridin-3-yl]-2,3-dihydro-benzo[1,4]dioxine-5-carboxylic acid amide]", "IC50": "5.2 µM"}, {"smiles": "NC(=O)c1cccc2c1OCC(c1cncc(CC(=O)N3CCOCC3)c1)O2", "note": "(single isomer, unassigned) [Cpd 13A, 2-[5-(2-Morpholin-4-yl-2-oxo-ethyl)-pyridin-3-yl]-2,3-dihydro-benzo[1,4]dioxine-5-carboxylic acid amide]", "IC50": "> 100 µM"}, {"smiles": "NC(=O)c1cccc2c1OCC(c1cncc(CN3CCCC3=O)c1)O2", "note": "(single isomer, unassigned) [Cpd 5B, 2-[5-(2-Oxo-pyrrolidin-1-ylmethyl)-pyridin-3-yl]-2,3-dihydro-benzo[1,4]dioxine-5-carboxylic acid amide]", "IC50": "22 µM"}, {"smiles": "CC(=O)N1CCC(Oc2cncc(C3COc4c(C#N)cccc4O3)c2)CC1", "note": "(single isomer, unassigned) [Cpd 38B, 2-[5-(1-Acetyl-piperidin-4-yloxy)-pyridin-3-yl]-2,3-dihydro-benzo[1,4]dioxine-5-carbonitrile]", "IC50": "0.7 µM"}, {"smiles": "CC(=O)N1CCC[C@@H](Oc2cncc(C3COc4c(cccc4C(N)=O)O3)c2)C1", "note": "(single isomer, unassigned) [Cpd 7A]", "IC50": "> 30 µM"}, {"smiles": "NC(=O)c1cccc2c1OCC(c1cncc(CN3CCCCS3(=O)=O)c1)O2", "note": "(single isomer, unassigned) [Cpd 3A, 2-[5-(1,1-Dioxo-1λ^6,-[1,2]thiazinan-2-ylmethyl)-pyridin-3-yl]-2,3-dihydro-benzo[1,4]dioxine-5-carboxylic acid amide]", "IC50": "> 30 µM"}]}]}
